{
  "source": "patent US8710089B2",
  "about": "“Triazole derivatives as ghrelin analogue ligands of growth hormone secretagogue receptors” (Zentaris GmbH, priority 2005, dated 2014)",
  "key": {"human GHS-R 1a": {"target": "T1, human GHS-R 1a (Homo sapiens, UniProt Q92847)", "T1 construct": "expressed in transfected cells; host or cells: LLC PK-1 porcine renal epithelial cells (ECACC No. 86121112), isolated plasma membranes", "T1 sequence (Q92847 whole entry)": "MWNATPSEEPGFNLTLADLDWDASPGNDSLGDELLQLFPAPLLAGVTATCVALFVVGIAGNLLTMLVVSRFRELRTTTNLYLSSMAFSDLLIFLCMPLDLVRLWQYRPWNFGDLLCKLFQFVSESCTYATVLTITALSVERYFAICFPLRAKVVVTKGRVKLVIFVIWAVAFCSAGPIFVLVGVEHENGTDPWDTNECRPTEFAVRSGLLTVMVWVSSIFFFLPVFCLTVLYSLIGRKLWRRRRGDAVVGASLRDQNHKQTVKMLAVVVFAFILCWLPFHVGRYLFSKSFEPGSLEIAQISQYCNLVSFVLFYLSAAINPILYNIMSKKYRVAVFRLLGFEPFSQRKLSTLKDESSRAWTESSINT", "assay": "GHS-R 1a receptor-ligand binding assay (membrane preparations from transfected LLC PK-1 cells)", "settings": "displacement of 125I-His9-ghrelin (60 pM); membranes of LLC PK-1 cells transfected with human GHS-R 1a; mean of at least two independent experiments in triplicates", "procedure,_shortened": "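Membranes from LLC PK-1 cells expressing human GHS-R 1a incubated 60 min at 25 °C in 50 mM Tris pH 7.3, 5 mM MgCl2, 2.5 mM EDTA, bacitracin with 60 pM 125I-ghrelin and competitor; nonspecific binding with 10^-6 M ghrelin; filtration read-out.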"}, "[1]": {"system": "GH concentration in the plasma of male rat pups", "assay": "In vivo GH concentration in the plasma of male rat pups", "design": "species or system rat (Sprague-Dawley)", "settings": "rat pup plasma, killed 15 min later"}, "[2]": {"system": "young-adult male Sprague-Dawley rats", "assay": "Feeding behavior (food intake) of young-adult male rats", "assay_type": "in vivo, rat (Sprague-Dawley)", "procedure,_shortened": "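Compounds (160 μg/kg) and/or hexarelin (80 μg/kg), the latter used to stimulate feeding, given s.c. around 10.00–11.00 a.m. to trained rats (200–250 g) with free access to chow and water. Remaining food weighed hourly for 6 h; intake normalized to body weight as g per 100 g.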"}, "[3]": {"target": "T2, Motilin-Receptor 1a (MTL-R1a) (Homo sapiens, UniProt O43193)", "T2 construct": "expressed in transfected cells; host or cells: HEK-293 cells", "T2 sequence (O43193 whole entry)": "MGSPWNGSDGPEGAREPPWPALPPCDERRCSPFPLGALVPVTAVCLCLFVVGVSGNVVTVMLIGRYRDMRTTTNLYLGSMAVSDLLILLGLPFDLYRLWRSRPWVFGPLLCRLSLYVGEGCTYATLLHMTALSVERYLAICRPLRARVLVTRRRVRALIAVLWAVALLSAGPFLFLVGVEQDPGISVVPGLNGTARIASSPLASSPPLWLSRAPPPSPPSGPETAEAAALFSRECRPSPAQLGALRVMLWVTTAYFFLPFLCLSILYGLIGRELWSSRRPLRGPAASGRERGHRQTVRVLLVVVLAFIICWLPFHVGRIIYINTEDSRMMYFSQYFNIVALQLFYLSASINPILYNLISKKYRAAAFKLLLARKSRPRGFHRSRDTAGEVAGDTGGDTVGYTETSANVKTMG", "assay": "Motilin receptor-ligand binding assay (human recombinant HEK-293 cells)", "settings": "0.1 nM [125I] Motilin, read-out: MTL-R 1a IC50", "experimental": "VI) Motilin Receptor-Ligand Binding Assay (Using Human Recombinant HEK-293 Cells)\nMotilin Receptor binding/affinity studies were performed as described by Feighner S D et al. (Science 1999, 284: 2184-2188). The assays were run under the following conditions:\nCompounds of the invention were tested in concentrations comprising 0.01 μM, 0.1 μM, 1 μM and 10 μM.\nIC50 values were determined by a non-linear, least square regression analysis using Data Analysis Toolbox (MDL Information Systems, USA).\nIn the following table 5 results obtained for selected compounds of the invention are presented."}, "[4]": {"system": "rats with adjuvant induced arthritis", "assay": "Anti-cachectic effects in an adjuvant-induced arthritis model system", "assay_type": "in vivo, rat", "settings": "arthritic rats, 0.1 μg/kg/day s.c.", "description": "VII) Study of Anti-Cachectic Effects in an Adjuvant-Induced Arthritis Model System\nThe effectiveness of compounds of the invention in the treatment of cachexia was investigated according to Ibanez de Caceres I et al. (J Endocrinol. 2000, 165(3): 537-544) using a cachexia model system (Roubenoff R et al., Arthritis Rheum. 1997, 40(3): 534-539)."}, "[5]": {"settings": "compound 160 μg/kg s.c. + hexarelin 80 μg/kg s.c."}, "[6]": {"settings": "compound alone, 160 μg/kg body weight s.c."}},
  "data": [
    {"molecule": "COc1ccc(Cn2c(CCc3ccccc3)nnc2[C@@H](Cc2c[nH]c3ccccc23)NC(=O)C2CCNCC2)cc1", "note": "[compound 44, (R)—N-(1-(4-(4-methoxybenzyl)-5-phenethyl-4H-1,2,4-triazol-3-yl)-2-(1H-indol-3-yl)ethyl)piperidine-4-carboxamide]", "values": [
      {"measurement": "IC50", "setting": "human GHS-R 1a", "result": 0.6, "unit": "nM"},
      {"measurement": "GH concentration", "setting": "[1]; compound 160 μg/kg s.c. at -10 min + hexarelin 80 μg/kg s.c. at 0 min", "result": "100.52 ± 12.112", "unit": "ng/mL"},
      {"measurement": "GH concentration", "setting": "[1]; compound alone 160 μg/kg body weight s.c. at -10 min, solvent at 0 min", "result": "87.520 ± 15.066", "unit": "ng/mL"},
      {"measurement": "Cumulative food intake (after 2 hours)", "setting": "[2]; [5]", "result": "1.2667 ± 0.1319", "unit": "g food/100 g body weight"},
      {"measurement": "Cumulative food intake (after 6 hours)", "setting": "[2]; [5]", "result": "1.4033 ± 0.1177", "unit": "g food/100 g body weight"},
      {"measurement": "Cumulative food intake (after 2 hours)", "setting": "[2]; [6]", "result": "0.43 ± 0.0721", "unit": "g food/100 g body weight"},
      {"measurement": "Cumulative food intake (after 6 hours)", "setting": "[2]; [6]", "result": "0.7075 ± 0.1471", "unit": "g food/100 g body weight"},
      {"measurement": "IC50", "setting": "[3]", "result": 1610, "unit": "nM"},
      {"measurement": "Body weight change, Day 3", "setting": "[4]; Day 3, mean of 6 animals", "result": "−5.32", "unit": "gram"},
      {"measurement": "Body weight change, Day 6", "setting": "[4]; Day 6, mean of 6 animals", "result": 2.98, "unit": "gram"},
      {"measurement": "Body weight change, Day 10", "setting": "[4]; Day 10, mean of 6 animals", "result": 14.92, "unit": "gram"},
      {"measurement": "Body weight change, Day 13", "setting": "[4]; Day 13, mean of 6 animals", "result": 19.08, "unit": "gram"},
      {"measurement": "Body weight change, Day 15", "setting": "[4]; Day 15, mean of 6 animals", "result": 7.05, "unit": "gram"},
      {"measurement": "Body weight change, Day 17", "setting": "[4]; Day 17, mean of 6 animals", "result": 1.47, "unit": "gram"}
    ]}
  ]
}
